Structures are written as SMILES. Values joined by “and” are separate entries in the source; they are usually repeats but may differ in a detail not shown here. Equal values may be shown once.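 All cell lines were grown in 96-well plates and treated with compound for 48 hours. The concentration for 50% growth inhibition is given as GI50. Definition used: TGI = concentration required for complete inhibition of growth.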 *1 amine or outer side, *2 acyl side, *3 side chain or, on linkers, in order; H or OH if unused. Where a SMILES comes first, the peptide text is derived from it. Bridges are numbered along the chain shown (N, C = ends). [ ]: non-standard residue; d: D form. ξ: configuration not given here. X4 = CCC(C)C(N[*:1])C(O)CC(=O)O[C@H](C(=O)C(C)C(=O)[*:2])C(C)C; NMeY = CN[C@@H](Cc1ccc(O)cc1)C(=O)O; X9 = O=C([C@@H]1CC(O)CN1[*:1])[*:2]; ξNMeL = CNC(CC(C)C)C(=O)O; ξT = CC(O)C(N)C(=O)O

Test systems include UO-31 renal; KM12 colon; SF-268 CNS; SK-MEL-2 melanoma; HT29 colon; HCT-15 colon; SF-295 CNS; U251 CNS; HL-60(TB) leukemia; UACC-257 melanoma.
Holding throughout (test): growth of human tumour cells (NCI), 48 h

Turning to `CCC(C)C1NC(=O)C(NC(=O)C(CC(C)C)N(C)C(=O)[C@@H]2CC(O)CN2)C(C)OC(=O)[C@H](Cc2ccc(OC)cc2)N(C)C(=O)[C@@H]2CCCN2C(=O)[C@H](CC(C)C)NC(=O)C(C)C(=O)[C@H](C(C)C)OC(=O)CC1O` (some centres not stated) (H-[X9][ξNMeL][ξT][X4]LP[NMeY](Me); ester 3-C), the GI50 is 0.711 µM in the assay with UO-31 renal, 0.147 µM with HCT-15 colon, 0.0166 µM with SF-295 CNS and 0.035 µM in the assay on HL-60(TB) leukemia. For the same compound, the TGI is 0.954 µM and 7.18 µM in the assay with UO-31 renal; 0.105 µM in the assay with KM12 colon; 0.172 µM and 0.252 µM with SF-268 CNS; 0.0496 µM and 0.0758 µM in the assay on SK-MEL-2 melanoma; 1.18 µM and 0.159 µM with HT29 colon; 8.57 µM in the assay on HCT-15 colon. Moreover, the TGI in the assay with SF-295 CNS was 0.286 µM and 0.304 µM; in the assay with U251 CNS, 0.335 µM and 1.01 µM; with UACC-257 melanoma it was 0.185 µM and 0.608 µM.

As to `COc1cc(N2CCC(N(C)C)CC2)ccc1Nc1ncc(Cl)c(Nc2ccccc2P(C)(C)=O)n1`, the GI50 with UO-31 renal was 1.82 µM and 0.752 µM; with SF-268 CNS it was 1.17 µM and 0.386 µM; in the assay on SK-MEL-2 melanoma, 1.14 µM and 0.728 µM; with HT29 colon, 0.261 µM and 0.0794 µM; in the assay on HCT-15 colon, 2.8 µM and 1.48 µM; with SF-295 CNS, 1.81 µM and 0.409 µM. The GI50 is 1.42 µM and 0.713 µM with U251 CNS; 1.25 µM and 0.168 µM in the assay on HL-60(TB) leukemia; 4.01 µM and 0.61 µM in the assay on UACC-257 melanoma. For the same compound, the TGI is 4.73 µM and 4.59 µM with UO-31 renal; greater than 30 µM in the assay on KM12 colon; 5.04 µM and 2.76 µM with SF-268 CNS; 4.16 µM and 2.99 µM in the assay with SK-MEL-2 melanoma; 2.99 µM and 0.785 µM with HT29 colon; 16.9 µM and > 9.67 µM in the assay with HCT-15 colon. For the same compound, the TGI in the assay on SF-295 CNS was 15.8 µM and > 5.44 µM; in the assay on U251 CNS it was 9.94 µM and > 10 µM; in the assay with HL-60(TB) leukemia, 11.6 µM and > 5.33 µM; in the assay with UACC-257 melanoma, 30 µM and > 8.47 µM.

As to `CCCOc1ccc(/C=C/c2cc(OC)c(OC)c(OC)c2)cc1`, the TGI with UO-31 renal was greater than 100 µM; in the assay on KM12 colon, greater than 25.4 µM; in the assay with SF-268 CNS it was greater than 100 µM; in the assay on SK-MEL-2 melanoma, greater than 100 µM; in the assay on HT29 colon it was 3.93 µM; in the assay with HCT-15 colon it was 15.1 µM. Moreover, the TGI in the assay on SF-295 CNS is 1.06 µM; in the assay with U251 CNS, greater than 29.6 µM; with HL-60(TB) leukemia, 1.16 µM; in the assay on UACC-257 melanoma, 39.3 µM.

In the case of `O=C1C(NCCO)=C(N2CC2)C(=O)C(NCCO)=C1N1CC1`, the TGI in the assay with UO-31 renal is greater than 88 µM; with KM12 colon it was greater than 100 µM; in the assay with SF-268 CNS, 76.8 µM; with SK-MEL-2 melanoma, greater than 73.9 µM; in the assay on HT29 colon, greater than 81.8 µM; with HCT-15 colon, greater than 72.5 µM. In addition, the TGI in the assay on SF-295 CNS was 64.6 µM; with U251 CNS, greater than 71.6 µM; in the assay on HL-60(TB) leukemia it was 57.6 µM; in the assay with UACC-257 melanoma, greater than 100 µM.

For the compound `O=c1cc/c(=N\Nc2ccccc2)c(=O)/c1=N/Nc1ccccc1`, the GI50 in the assay on UO-31 renal, in the assay on KM12 colon, in the assay with SF-268 CNS, with SK-MEL-2 melanoma, in the assay on HT29 colon and in the assay with HCT-15 colon was greater than 50 µM each time. The GI50 with SF-295 CNS, with U251 CNS, in the assay on HL-60(TB) leukemia and in the assay on UACC-257 melanoma was greater than 50 µM throughout. Also, the TGI with UO-31 renal, in the assay with KM12 colon, in the assay with SF-268 CNS, in the assay on SK-MEL-2 melanoma, with HT29 colon and in the assay with HCT-15 colon was greater than 50 µM throughout. Also, the TGI in the assay with SF-295 CNS, in the assay with U251 CNS, in the assay on HL-60(TB) leukemia and in the assay on UACC-257 melanoma was greater than 50 µM in each case.

Regarding `Cc1c(C(=O)/C=C/c2ccc(O)cc2)nnn1-c1ccnc2c(C(F)(F)F)cccc12`, the GI50 is 41.9 µM in the assay with UO-31 renal; 8.92 µM in the assay on KM12 colon; 4.08 µM with SF-268 CNS; greater than 100 µM in the assay on SK-MEL-2 melanoma; 3.36 µM in the assay on HT29 colon; 15.1 µM in the assay with HCT-15 colon. Also, the GI50 in the assay with SF-295 CNS was 25.8 µM; in the assay with U251 CNS, 5.14 µM; with HL-60(TB) leukemia, 4.01 µM; in the assay on UACC-257 melanoma, 4.4 µM. The TGI is greater than 100 µM in the assay with UO-31 renal; greater than 100 µM with KM12 colon; 71.8 µM in the assay on SF-268 CNS; greater than 100 µM with SK-MEL-2 melanoma; 30.1 µM in the assay on HT29 colon; greater than 100 µM in the assay with HCT-15 colon. In addition, the TGI with SF-295 CNS is greater than 100 µM; in the assay on U251 CNS it was 69.8 µM; in the assay with HL-60(TB) leukemia, 31.4 µM; in the assay on UACC-257 melanoma it was 22.9 µM.

Take `FC(F)(F)c1ccc2c(c1)N(CCCN1CCN(C3CC3)CC1)c1ccccc1S2`: the GI50 with UO-31 renal was 8.13 µM; in the assay on KM12 colon, 7.68 µM; with SF-268 CNS, 12.7 µM; in the assay on SK-MEL-2 melanoma, 18.9 µM; with HT29 colon, 3.48 µM; in the assay on HCT-15 colon, 3.81 µM. Besides, the GI50 is 3.74 µM in the assay on SF-295 CNS, 4.94 µM in the assay on U251 CNS, 6.03 µM in the assay with HL-60(TB) leukemia and 5.57 µM in the assay with UACC-257 melanoma. For the same compound, the TGI was 22.9 µM with UO-31 renal; 21 µM in the assay with KM12 colon; 26.8 µM with SF-268 CNS; 34.9 µM with SK-MEL-2 melanoma; 13.8 µM in the assay with HT29 colon; 18.6 µM in the assay on HCT-15 colon. The TGI is 18.4 µM with SF-295 CNS, 18 µM in the assay on U251 CNS, 23.3 µM with HL-60(TB) leukemia and 19 µM in the assay on UACC-257 melanoma.

On to `C=CCOc1cc2c(cc1C(C)c1ccc(OC)cc1)OCO2` (configuration not stated), for which the TGI in the assay with UO-31 renal is greater than 87.8 µM; in the assay with KM12 colon it was 65.9 µM; with SF-268 CNS, greater than 74.3 µM; in the assay with SK-MEL-2 melanoma, greater than 100 µM; in the assay on HT29 colon it was 2.26 µM; with HCT-15 colon it was greater than 100 µM. Moreover, the TGI with SF-295 CNS was 0.817 µM; in the assay with U251 CNS, greater than 100 µM; in the assay with HL-60(TB) leukemia it was 2.6 µM; in the assay with UACC-257 melanoma, 6.44 µM.

With `COc1nccc(-c2c(-c3ccc(F)cc3)ncn2C2CCC(O)CC2)n1` (configuration not stated), the GI50 with UO-31 renal was 10.1 µM; with KM12 colon, greater than 85.6 µM; with SF-268 CNS, greater than 84.6 µM; with SK-MEL-2 melanoma, greater than 100 µM; in the assay with HT29 colon it was 42.6 µM; with HCT-15 colon it was 36.6 µM. The GI50 with SF-295 CNS is greater than 100 µM; in the assay on U251 CNS, greater than 86.9 µM; in the assay with HL-60(TB) leukemia, 56.7 µM; in the assay on UACC-257 melanoma it was greater than 100 µM. Besides, the TGI in the assay on UO-31 renal, in the assay on KM12 colon, with SF-268 CNS, in the assay with SK-MEL-2 melanoma, in the assay on HT29 colon and in the assay on HCT-15 colon was greater than 100 µM throughout. Moreover, the TGI in the assay on SF-295 CNS, in the assay with U251 CNS, in the assay with HL-60(TB) leukemia and in the assay with UACC-257 melanoma was greater than 100 µM in each case.

(Values after PubChem BioAssay (NCI).)
